The subject of the assay is β-glucosidase. In words: DNS reducing sugar assay, Lineweaver-Burk plot. The conditions noted are these: citrate buffer pH 4.8, 50 °C, 30 min; salicin 5-50 mg/ml. In kind it is biochemical, Penicillium simplicissimum.

The structures appear in SMILES notation.

Take `OCc1ccccc1O[C@@H]1O[C@H](CO)[C@@H](O)[C@H](O)[C@H]1O` [salicin]: the Michaelis constant (Km) (usually the substrate concentration at which the rate is half of its maximum) was found to be 14.881 mg/mL.

The values are drawn from article PMC4657531 (EXCLI Journal, 2013).
